The values that follow come from patent publication US10604514B2, “6-(5-membered heteroaryl)isoquinolin-3-yl carboxamides and preparation and use thereof” (Samumed, LLC, priority 2017, dated 2020).

Assay [1] deals with Wnt activity (Sp5-Luc reporter in SW480 colon carcinoma cells). The experiment in a line: Wnt activity screening assay (Sp5-Luc reporter gene assay). The assay is classed as cell-based, human. The procedure, abridged: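 Compounds at 10 points (1:3 steps, top 10 μM, 0.1% DMSO final) were incubated 36 to 48 h at 37° C with stable Sp5-Luc SW480 reporter cells in 1% FBS medium. Luciferase luminescence was then read and expressed relative to DMSO-only cells. Four-parameter variable-slope fitting yielded EC50 values.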

For assay [2], the system named is Tau phosphorylation at Ser396 (pSer396), SH-SY5Y cells. In words: Tau phosphorylation at Ser396 (pSer396) in SH-SY5Y cells, ELISA/western blot.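 Note: cell lysates probed for reduced Tau pSer396 via ELISA (colorimetric) or western blot (chemiluminescence), both with one shared pSer396 antibody, EC50 for lowering phosphorylation.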 The assay is classed as cell-based, human. To be noted: Homo sapiens. A general note: In an ELISA, binding on a coated surface is turned into a signal by an enzyme label.
The test system of assay [3] is Tau phosphorylation at Threonine 212 (pT212Tau), HEK293T cells. In words: Tau phosphorylation at Threonine 212 (pT212Tau) in Dyrk1a- and MAPT-overexpressing HEK293T cells, sandwich ELISA. To be noted: Homo sapiens, HEK-293T, overnight (16-18 hours), read-out: Thr212 EC50. In kind it is cell-based. How it is done: Representative compounds were screened using the cell-based assay procedure for signal of Tau phosphorylation at Threonine 212 (pT212Tau) in a transiently double transfected (Dyrk1a- and MAPT-overexpressing) cell type as described below.
HEK293T cells (transfectable human embryonic kidney cells) were cultured in DMEM medium supplemented with 10% FBS and 1% penicillin/streptomycin.
HEK293T cells were transiently transfected to overexpress Dyrkla and microtubule-associated protein Tau (MAPT) genes. Specifically, Dyrkla and MAPT expression vectors were obtained from OriGene (10 μg of each, catalog numbers SC314641 and RC216166, respectively). A MaxiPrep for each vector was ordered and received from GeneWiz, yielding […] (resuspended at […]) of the Dyrkla expression vector, and 898 μg (resuspended at 1.796 μg/μL) of MAPT.
HEK293T cells were seeded at 1.0×10^7 cells in 10 mL per T-75 flask. […] One T-75 flask was designated as a no-vector negative control for pT212Tau signal.
After 4˜6 hours of incubation in transfection reagents, transiently double transfected HEK293T cells were dissociated by treatment with trypsin EDTA and seeded at 1.0×10^5 cells in 100 μL per well in 96-well plates. No-vector negative controls were seeded in separate 96-well plates to avoid the risk of the negative control cells picking up the overexpression during incubation. At the time of seeding, DMSO-resuspended Samumed compounds were dispensed to eight wells as a serial dilution from 10 μM to 4.6 nM final concentration in medium, or at 0.12 μM to 0.05 nM with particularly potent compounds. Cells were exposed to the representative compounds overnight (16-18 hours) in a 37° C. incubator.
96-Well flat-bottom plates were coated with 100 μL per well anti-HT7 capture antibody (ThermoFisher, MN1000) diluted 1:300 in 1×PBS at 4° C. overnight, with shaking at 500 rpm. After overnight capture antibody incubation, coated plates were washed four times with 200 µL per well of 1×PBS-0.05% Tween-20, and blocked for 1 hour with 200 μL per well of 1×PBS with 2% BSA. After 1 hour of blocking, plates were washed four times with 200 μL per well of 1×PBS-0.05% Tween-20, prior to sample loading.
Wells of compound-treated cells were visually checked for cell death before being washed with 200 μL per well of 1×DPBS supplemented with phosphatase inhibitor diluted to IX. Cells were then lysed with 100 μL 1×RIPA buffer supplemented with phosphatase and protease inhibitors (each diluted to a final 1×). Cells were shaken at 500 rpm, 4° C. for 20 minutes prior to further lysis (via manual scraping) and transfer to 96-well V-bottom collection plates (Corning, 3894). V-bottom plates were centrifuged at 4000 rpm, 4° C., for 15 minutes, and 100 μL of lysate supernatant from each well was directly tested for pT212Tau signal by sandwich ELISA.
Specifically, lysates were directly transferred to the coated and blocked ELISA plates for 2 hours before plates were washed four times with 200 μL per well of 1×PBS-0.05% Tween-20 and probed with 100 μL per well of anti-pT212Tau antibody (ThermoFisher, 44-740G) diluted 1:200 in 1×PBS for 2 hours. Plates were washed four times with 200 μL per well of 1×PBS-0.05% Tween-20 and probed with 100 μL per well of anti-rabbit/HRP conjugate (Cell Signaling Technology, 7074S) diluted 1:600 in 1×PBS for 1 hour. Plates were washed four times with 200 μL per well of 1×PBS-0.05% Tween-20 before 100 μL per well of TMB substrate solution (ThermoFisher, N301) was added. When colour development was observed, 100 μL per well of stop solution (ThermoFisher, N600) was added, and colorimetric detection of pT212Tau signal was read at 450 nm with the Cytation 3 Cell Imaging Multi-Mode Reader (BioTek). The signal was used to plot, draw the curves fitting, and determine the EC50 values in GraphPad Prism for tested representative compounds.

[4] abbreviates: Homo sapiens, SW480, read-out: percent inhibition at 10 μM.
Setting [5] is: Homo sapiens; Sp5-Luc reporter, SW480 cells, 36 to 48 hours.
Where [6] appears, read: SH-SY5Y, read-out: pSer396 Tau EC50 (μM).
Setting [7] is: SH-SY5Y cells, overnight (16-18 h), read-out: pSer396 Tau EC50.
[8] abbreviates: Homo sapiens, SW480; read-out: percent inhibition at 10 μM.

Structures are written as SMILES. Like-named read-outs stand apart in the source and are kept apart here.

Take `Cc1nnc(-c2ccc3cnc(NC(=O)N4[C@@H]5CC[C@H]4C[C@@H](NCCC(F)(F)F)C5)cc3c2)s1` [Compound 195, (1R,5S)-cis-N-(6-(5-methyl-1,3,4-thiadiazol-2-yl)isoquinolin-3-yl)-3-((3,3,3-trifluoropropyl)amino)-8-azabicyclo[3.2.1]octane-8-carboxamide]: the inhibition at 10 µM in assay [1] (setting [4]) amounted to 13.8%. The EC50 in assay [1] (setting [5]) is more than 10 µM; in assay [2] (setting [6]), more than 10 µM; in assay [3], 46 nM.

Take `CN1CC2CCC(C1)N2C(=O)Nc1cc2cc(-c3cnn(C)c3)ccc2cn1` [Compound 61, 3-Methyl-N-(6-(1-methyl-1H-pyrazol-4-yl)isoquinolin-3-yl)-3,8-diazabicyclo[3.2.1]octane-8-carboxamide]: the inhibition at 10 µM in assay [1] (setting [4]) turned out to be 22.4%. The concentration for a half-maximal effect (EC50) in assay [1] (setting [5]) is more than 10 µM; in assay [2] (setting [6]) it was more than 10 µM; in assay [3], 15 nM.

For `Cc1nnc(-c2ccc3cnc(NC(=O)N4[C@@H]5CC[C@H]4C[C@H](NCCC(F)(F)F)C5)cc3c2)s1` [Compound 153, (1R,5S)-N-(6-(5-Methyl-1,3,4-thiadiazol-2-yl)isoquinolin-3-yl)-3-exo-((3,3,3-trifluoropropyl)amino)-8-azabicyclo[3.2.1]octane-8-carboxamide], in assay [1] (setting [4]), the inhibition at 10 µM was determined as 3.4%. In addition, the EC50 in assay [1] (setting [5]) is more than 10 µM; in assay [2] (setting [6]), more than 10 µM; in assay [3], 528 nM.

Regarding `Cc1nnc(-c2ccc3cnc(NC(=O)[C@H]4CC[C@H](N(C)C)CC4)cc3c2)s1` [Compound 22, trans-4-(Dimethylamino)-N-(6-(5-methyl-1,3,4-thiadiazol-2-yl)isoquinolin-3-yl)cyclohexane-1-carboxamide], the EC50 in assay [1] (setting [5]) amounted to 0.434 µM; in assay [2] (setting [7]), 0.126 µM; in assay [3], 11 nM.

Regarding `COCCN[C@H]1CC[C@H](C(=O)Nc2cc3cc(-c4cnc(C)o4)ccc3cn2)CC1` [Compound 106, trans-4-((2-Methoxyethyl)amino)-N-(6-(2-methyloxazol-5-yl)isoquinolin-3-yl)cyclohexane-1-carboxamide], the EC50 in assay [1] (setting [5]) was determined as 3.43 µM; in assay [2] (setting [7]) it was 0.323 µM; in assay [3], 137 nM.

`Cc1nnc(-c2cc(F)c3cnc(NC(=O)N(C)C4CCN(C)CC4)cc3c2)s1` [Compound 227, 3-(8-Fluoro-6-(5-methyl-1,3,4-thiadiazol-2-yl)isoquinolin-3-yl)-1-methyl-1-(1-methylpiperidin-4-yl)urea]: the EC50 in assay [1] (setting [5]) was determined as 3.65 µM; in assay [2] (setting [7]) it was 4.5 µM; in assay [3], 691 nM.

Consider `CN1CCC(N(C)C(=O)Nc2cc3cc(-c4cnn(C)c4)cc(F)c3cn2)CC1` [Compound 230, 3-(8-Fluoro-6-(1-methyl-1H-pyrazol-4-yl)isoquinolin-3-yl)-1-methyl-1-(1-methylpiperidin-4-yl)urea], for which, in assay [1] (setting [8]), the inhibition at 10 µM was 0%. The results for the EC50 in assay [1] (setting [5]) and in assay [3] were more than 10 µM and 56 nM, respectively.

With `C[C@@H]1CN(C(=O)Nc2cc3cc(-c4cnn(C)c4)ccc3cn2)CCN1C` [Compound 67, (R)-3,4-Dimethyl-N-(6-(1-methyl-1H-pyrazol-4-yl)isoquinolin-3-yl) piperazine-1-carboxamide], the inhibition at 10 µM in assay [1] (setting [8]) was determined as 34.3%. The values for the EC50 in assay [1] (setting [5]), in assay [2] (setting [7]) and in assay [3] were more than 10 µM, more than 10 µM and 6 nM, respectively.

Take `Cc1nnc(-c2ccc3cnc(NC(=O)N4C5CCC4CN(C)C5)cc3c2)s1` [Compound 108, 3-Methyl-N-(6-(5-methyl-1,3,4-thiadiazol-2-yl)isoquinolin-3-yl)-3,8-diazabicyclo[3.2.1]octane-8-carboxamide]: the inhibition at 10 µM in assay [1] (setting [4]) worked out at 19.9%. For the same compound, the EC50 in assay [1] (setting [5]) was more than 10 µM; in assay [2] (setting [6]) it was more than 10 µM; in assay [3], 22 nM.

As for `Cc1cn2c(n1)CN(C(=O)Nc1cc3cc(-c4nnc(C)s4)ccc3cn1)CC2` [Compound 58, 2-Methyl-N-(6-(5-methyl-1,3,4-thiadiazol-2-yl)isoquinolin-3-yl)-5,6-dihydroimidazo[1,2-a]pyrazine-7(8H)-carboxamide], the figures for the EC50 in assay [1] (setting [5]), in assay [2] (setting [7]) and in assay [3] were 1.46 µM, 0.058 µM and 93 nM, respectively.

As to `Cc1ncc(-c2ccc3cnc(NC(=O)N(C)C4CCN(C)CC4)cc3c2)o1` [Compound 231, 1-Methyl-3-(6-(2-methyloxazol-5-yl)isoquinolin-3-yl)-1-(1-methylpiperidin-4-yl)urea], the EC50 in assay [1] (setting [5]) is 3.89 µM; in assay [3] it was 110 nM.

As to `COCCN[C@H]1CC[C@H](C(=O)Nc2cc3cc(-c4cnn(C)c4)ccc3cn2)CC1` [Compound 196, trans-4-((2-Methoxyethyl)amino)-N-(6-(1-methyl-1H-pyrazol-4-yl)isoquinolin-3-yl)cyclohexane-1-carboxamide], the EC50 in assay [1] (setting [5]) came to 3.98 µM; in assay [3] it was 19 nM.

For the compound `Cc1ncc(-c2ccc3cnc(NC(=O)[C@H]4CC[C@H](NCCF)CC4)cc3c2)o1` [Compound 155, trans-4-((2-fluoroethyl)amino)-N-(6-(2-methyloxazol-5-yl)isoquinolin-3-yl) cyclohexane-1-carboxamide], the EC50 in assay [1] (setting [5]) is 2.67 µM; in assay [2] (setting [7]), 0.384 µM; in assay [3], 26 nM.

Regarding `CN1CCC(N(C)C(=O)Nc2cc3cc(-c4cn(C)nn4)cc(F)c3cn2)CC1` [Compound 228, 3-(8-Fluoro-6-(1-methyl-1H-1,2,3-triazol-4-yl)isoquinolin-3-yl)-1-methyl-1-(1-methylpiperidin-4-yl)urea], the inhibition at 10 µM in assay [1] (setting [8]) came out at 46.3%. Further, the concentration for a half-maximal effect (EC50) in assay [1] (setting [5]) is more than 10 µM; in assay [2] (setting [7]) it was 6.4 µM; in assay [3], more than 10000 nM.

The term inhibition denotes the drop in the measured response relative to a control, in per cent. For orientation: EC50 means the concentration that produces a half-maximal response.
